Laboratory results from PubChem BioAssay (NCI).
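A five-concentration, 48-hour dose response in 96-well plates underlies each endpoint, interpolated linearly between surrounding concentrations. At the GI50, growth is halved. TGI denotes the concentration required for complete inhibition of growth.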

What was measured:
Experiment in all cases: DTP human tumour cell line panel, 48 h
[1] = system: BT-549 breast
[2] = system: IGROV1 ovarian
[3] = system: LOX IMVI melanoma
[4] = system: OVCAR-8 ovarian
[5] = system: RXF 393 renal
[6] = system: SK-MEL-28 melanoma
[7] = system: SW-620 colon
[8] = system: T-47D breast
[9] = system: UACC-257 melanoma
[10] = system: SNB-75 CNS

Compound | TGI [1] [µM] | TGI [2] [µM] | TGI [3] [µM] | TGI [4] [µM] | TGI [5] [µM] | TGI [6] [µM] | TGI [7] [µM] | TGI [8] [µM] | TGI [9] [µM] | TGI [10] [µM] | GI50 [1] [µM] | GI50 [2] [µM] | GI50 [3] [µM] | GI50 [5] [µM] | GI50 [6] [µM] | GI50 [10] [µM] | GI50 [7] [µM] | GI50 [8] [µM] | GI50 [9] [µM] | GI50 [4] [µM]
COC(=O)[C@]12CC[C@H]3CN(S(=O)(=O)c4ccc(C)cc4)[C@H]([C@H]31)[C@H](c1ccco1)N2S(=O)(=O)c1ccc(C)cc1 | 91.6 | > 100 | > 100 | > 100 | 71.5 | > 100 | > 100 | 49.5 | 81.1 | – | – | – | – | – | – | – | – | – | – | –
Cc1ccc(C(=O)NC2C(=O)NC(C(C)C)C(=O)N3CCCC3C(=O)N(C)CC(=O)N(C)C(C(C)C)C(=O)OC2C)c2c1Oc1c(c(C(=O)NC3C(=O)NC(C(C)C)C(=O)N4CCCC4C(=O)N(C)CC(=O)N(C)C(C(C)C)C(=O)OC3C)c3nc(-c4ccccc4)c(=O)oc3c1C)N2 (stereo not drawn) | 0.0224 | 13.3 | – | 0.0273 | 0.00911 | 0.0139 | 12 | 0.168 | 0.122 | 0.0132 | – | – | – | – | – | – | – | – | – | –
CCOC(=O)N1c2ccccc2N(C(=O)OCC)C1CC(=O)/C=C/c1ccccc1 | 9.84 | 17.8 | 7.06 | 8.63 | 13.8 | 28 | 25 | > 100 | 21.9 | 9.92 | – | – | – | – | – | – | – | – | – | –
Cc1cn(CC(=S)NCCc2c[nH]c3ccccc23)c(=O)[nH]c1=O | > 100 | > 100 | > 100 | – | > 100 | > 100 | > 100 | > 100 | – | – | – | – | – | – | – | – | – | – | – | –
C[C@@]12CC[C@@H](O)C[C@@H]1CC[C@H]1[C@H]2CC[C@@]2(C)[C@H](c3ccc(=O)oc3)CC[C@@]12O | 0.0104 | 0.171 | 0.0169 | – | – | 0.119 | 0.018 | 0.0577 | 0.0467 | 0.0263 | < 0.01 | < 0.01 | < 0.01 | < 0.01 | < 0.0141 | < 0.01 | < 0.01 | < 0.01 | < 0.0135 | –
O=C(O)C1=C(CO)Oc2cc3c(cc2C1c1ccc2c(c1)OCO2)OCO3 (stereo not drawn) | – | > 100 | > 100 | > 100 | > 100 | > 100 | > 100 | – | > 100 | > 100 | – | – | – | – | – | – | – | – | – | –
C=C(C)[C@@H]1CC[C@]2(C(=O)O)CC[C@]3(C)[C@H](CC[C@@H]4[C@@]5(C)C/C(=C/c6ccco6)C(=O)C(C)(C)[C@@H]5CC[C@]43C)[C@@H]12 | – | – | – | > 100 | – | – | 6.89 | 33.3 | > 100 | > 100 | – | – | – | – | – | > 100 | 2.52 | 3.2 | 3.12 | 3.5
c1ccc(-c2cc3nc4ccccc4nc3cc(-c3ccccc3)[nH][nH]2)cc1 | > 100 | > 100 | > 100 | > 100 | > 100 | > 100 | > 100 | > 100 | > 100 | 99.1 | – | – | – | – | – | – | – | – | – | –
C/C=C\C1OC1(C)c1cc(=O)c2c(C)cc3c(c2o1)C(=O)c1c(O)c(C2CC(C)(N(C)C)C(OC(C)=O)C(C)O2)cc(C2CC(N(C)C)C(O)C(C)O2)c1C3=O (stereo not drawn) | 0.0221 | 0.183 | 0.00485 | 0.0177 | 0.00746 | – | 0.0369 | 0.0324 | 0.0366 | 0.0067 | – | – | – | – | – | – | – | – | – | –
COc1cc2cc(C(=O)N3CC(CCl)c4ccc(NO)cc43)[nH]c2c(OC)c1OC (stereo not drawn) | 1.05 | 10.3 | 2.56 | 11.5 | 0.343 | 3.22 | > 100 | > 42.6 | – | 0.47 | – | – | – | – | – | – | – | – | – | –
O=C1c2cc3c(cc2[C@@H]2C(O)[C@H]4O[C@H]4C4CCN1C42)OCO3 (stereo partly drawn) | – | > 37.5 | > 37.5 | > 37.5 | – | > 37.5 | > 37.5 | – | – | – | – | – | – | – | – | – | – | – | – | –
COc1ccc2c(O)c1-c1c(OC)ccc(c1O)SSc1ccc(OC)c(c1O)-c1c(OC)ccc(c1O)SS2 | – | > 100 | > 100 | > 100 | 60 | > 100 | > 100 | 62.9 | > 100 | > 100 | – | – | – | – | – | – | – | – | – | –
Nc1c(S(=O)(=O)O)cc(S(=O)(=O)O)c2ccc(N=Nc3ccccc3)c(O)c12 | > 100 | > 100 | > 100 | > 100 | > 100 | > 100 | > 100 | > 100 | > 100 | > 100 | – | – | – | – | – | – | – | – | – | –
Cc1nn(CNc2ccc(F)c(Cl)c2)c(=S)n1/N=C/c1ccc(-c2ccc(Cl)cc2Cl)o1 | – | 34.6 | 44.9 | 48.5 | 34.3 | 44.3 | 29.2 | 58.8 | 46.9 | – | – | – | – | – | – | – | – | – | – | –
O=C(c1ccccc1)c1ccc(N2C(=O)/C(=C/c3cccc(Oc4ccccc4)c3)N=C2c2ccccc2)c(N2C(=O)/C(=C/c3cccc(Oc4ccccc4)c3)N=C2c2ccccc2)c1 | > 100 | > 100 | > 100 | > 100 | > 100 | > 100 | > 100 | > 100 | 71.7 | > 100 | – | – | – | – | – | – | – | – | – | –
CC(C)=CCC/C(C)=C/Cc1c2c(c3oc(-c4ccc(O)c(O)c4)c(O)c(=O)c3c1O)C=CC(C)(C)O2 | 15 | 8.5 | – | 7.92 | 18.6 | 10.8 | – | 7.39 | 11.2 | 11.6 | – | – | – | – | – | – | – | – | – | –

Compound | TGI [1] [µM] | TGI [2] [µM] | TGI [3] [µM] | TGI [4] [µM] | TGI [5] [µM] | TGI [6] [µM] | TGI [7] [µM] | TGI [8] [µM] | TGI [9] [µM] | TGI [10] [µM] | GI50 [1] [µM] | GI50 [2] [µM] | GI50 [3] [µM] | GI50 [5] [µM] | GI50 [6] [µM] | GI50 [10] [µM] | GI50 [7] [µM] | GI50 [8] [µM] | GI50 [9] [µM] | GI50 [4] [µM]
CCOC(=O)c1sc2nc(SC)nc3c2c1NC(=O)CN3c1ccc(F)cc1 | 43.3 | > 100 | > 100 | 69.1 | 41.8 | 82.6 | > 100 | – | > 100 | – | – | – | – | – | – | – | – | – | – | –
CO[P@@]1(=O)O[C@@H](c2ccccc2)[C@H](O)[C@@]1(O)c1ccccc1 | > 100 | > 100 | > 100 | > 100 | > 100 | > 100 | > 100 | > 100 | > 100 | > 100 | – | – | – | – | – | – | – | – | – | –
CCn1c2ccccc2c2ccc(C3C4C(=O)N(c5cccc6ccccc56)C(=O)C4ON3C(C(N)=O)c3ccccc3)cc21 (stereo not drawn) | > 25 | > 25 | > 25 | > 25 | > 25 | > 25 | > 25 | > 25 | > 25 | > 25 | – | – | – | – | – | – | – | – | – | –
Nc1ccc(Oc2ccc(C34CC5C6CC7(c8ccc(Oc9ccc(N)cc9)cc8)CC5C(C3)C(C7)C6C4)cc2)cc1 | > 100 | > 100 | > 100 | > 100 | > 100 | > 100 | > 100 | > 100 | > 100 | – | – | – | – | – | – | – | – | – | – | –
CCCCCCC(=O)OC[n+]1ccc(-c2c(COC(=O)NC(C)C)c(COC(=O)NC(C)C)c3n2CCC3)cc1 | > 100 | > 100 | > 100 | > 100 | > 100 | > 100 | > 100 | > 100 | > 100 | > 100 | – | – | – | – | – | – | – | – | – | –
CCCCC(CC)C(=O)Oc1ccc(C(=O)c2ccccc2)c(O)c1 (stereo not drawn) | > 100 | > 100 | > 100 | > 100 | > 100 | > 100 | > 100 | > 100 | > 100 | 74.3 | – | – | – | – | – | – | – | – | – | –
Nc1[nH]c(=O)nc2c1cnn2COCCO | – | > 100 | > 100 | > 100 | 93.7 | > 100 | > 100 | – | > 100 | > 100 | – | – | – | – | – | – | – | – | – | –
CCCCC/C=C\C=C\CCCCCCCCC(=O)OC | > 100 | > 100 | 87.9 | > 100 | > 100 | > 100 | > 100 | > 100 | > 100 | > 100 | – | – | – | – | – | – | – | – | – | –
C/C(=C\[Si](C)(C)c1ccco1)C(C)(O)[C@H](C)O (stereo partly drawn) | – | > 100 | > 100 | > 100 | – | > 100 | > 100 | 54.2 | 96.3 | – | – | – | – | – | – | – | – | – | – | –
CC(C)CC(N)C(=O)NC(CNC(CCC(N)=O)C(=O)NC(CC(C)C)C(=O)NC(CC(C)C)C(=O)O)Cc1ccc2ccccc2c1 (stereo not drawn) | > 10 | > 10 | > 10 | > 10 | > 10 | > 10 | > 10 | – | > 10 | > 10 | – | – | – | – | – | – | – | – | – | –
CC1CC(C)(O)C2C3(C)CCCC2(COC3=O)C12CCC1(CCOC1=O)O2 (stereo not drawn) | – | > 250 | > 250 | > 250 | > 250 | > 250 | > 250 | – | > 250 | > 250 | – | – | – | – | – | – | – | – | – | –
[O-]c1c2c(nn1-c1ccc(F)cc1)c1ccccc1c[n+]2Cc1ccccc1 | – | 30.6 | – | 61.9 | 33.7 | 34 | 48.7 | – | 30.3 | 60.5 | – | – | – | – | – | – | – | – | – | –
CN(C)CCC(=O)[C@@]1(O)CC[C@H]2[C@@H]3CC=C4C[C@@H](O)CC[C@]4(C)[C@H]3CC[C@@]21C | 32.8 | 34.3 | 28.7 | 40 | 23.1 | 33.2 | 50.2 | 23.5 | 26.1 | 29.5 | – | – | – | – | – | – | – | – | – | –
CCCCCCCCCCCCCCCCCCN(C)CC(COC)OP(=O)([O-])OCC[N+](C)(C)C (stereo not drawn) | 6.75 | 1.52 | 20.2 | 14.2 | 2.29 | 31.2 | 15.6 | 32.7 | 22.7 | 3.68 | – | – | – | – | – | – | – | – | – | –
CC1(C=O)CC(CCc2ccccc2)NC1Cc1ccc(O)cc1 (stereo not drawn) | 39.4 | 30.8 | 35 | 43.7 | 31 | 54 | 62.3 | 40.9 | 29.6 | 28.6 | – | – | – | – | – | – | – | – | – | –
Cc1csc2nc(-c3cc([N+](=O)[O-])c(Cl)cc3Cl)c(/C=N/N=C(N)N)n12 | 29.5 | 30 | 33.1 | 36.1 | 35 | 31.1 | 32.5 | 33.1 | 32.8 | – | – | – | – | – | – | – | – | – | – | –
